# Results taken from PMC6767204, “Synthesis and Biological Evaluation of Disubstituted Pyrimidines as Selective 5-HT2C Agonists” (Molecules, 2019).
# Structures can show the parent of a compound that is named as a salt. Where two headings read alike, the source gives them in different places.
# What was measured:
# 5-HT2C receptor [1] = target: T1, 5-HT2C receptor (Homo sapiens, UniProt P28335); test: 5-HT2C receptor cell-based functional assay (agonist mode, fluorescence-based); conditions: for %activation: Table 2, serotonin as reference compound
# T1 sequence (P28335 33-458): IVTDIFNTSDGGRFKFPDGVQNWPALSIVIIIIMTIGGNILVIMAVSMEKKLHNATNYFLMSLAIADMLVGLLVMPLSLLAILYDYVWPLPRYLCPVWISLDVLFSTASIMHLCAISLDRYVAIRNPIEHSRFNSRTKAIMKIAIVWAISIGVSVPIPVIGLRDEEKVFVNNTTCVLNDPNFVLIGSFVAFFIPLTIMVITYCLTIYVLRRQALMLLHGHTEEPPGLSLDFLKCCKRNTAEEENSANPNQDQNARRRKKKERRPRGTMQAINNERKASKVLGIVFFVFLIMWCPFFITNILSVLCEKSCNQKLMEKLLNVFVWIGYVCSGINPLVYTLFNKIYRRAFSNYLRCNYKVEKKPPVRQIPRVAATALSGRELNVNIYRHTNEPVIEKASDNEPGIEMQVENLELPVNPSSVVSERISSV
# Experimental: The synthesized compounds were tested in agonist mode with the 5-HT2C receptor assay using recombinant human HEK-293 cells serviced by either Eurofins Cerep or DGMIF (Daegu-Gyeongbuk Medical Innovation Foundation). All the experiments were duplicated.
# 5-HT2C receptor [2] = target: T1, 5-HT2C receptor; test: 5-HT receptor radioligand binding affinity assay, 2C; set-up: expressed in transfected cells
# Experimental: (§1) Eleven dilutions (5 x assay concentration) of the test and reference compounds (Table S1) were prepared in standard binding buffer (50 mM tris(hydroxymethyl)-aminomethane–HCl (Tris-HCl), 10 mM MgCl2, 1 mM ethylenediaminetetraacetate (EDTA), pH 7.4) by serial dilution: 0.05 nM, 0.5 nM, 1.5 nM, 5 nM, 15 nM, 50 nM, 150 nM, 500 nM, 1.5 μM, 5 μM, and 50 μM. The radioligand (Table S1) was diluted to five times the assay concentration in standard binding buffer. Aliquots (50 μL) of the radioligand were dispensed into the wells of a 96-well plate containing 100 μL of standard binding buffer. Triplicate aliquots (50 μL) of the test and reference compound dilutions were then added. Finally, crude membrane fractions (50 μL) of cells (HEK293 or CHO) expressing human recombinant receptors were dispensed into each well. A total 250 μL of the reaction mixtures was incubated at room temperature and shielded from light for 1.5 h, then harvested by rapid filtration onto Whatman GF/B glass fiber filters presoaked with 0.3% polyethyleneimine, by using a 96-well Brandel harvester.
# (§2) Four rapid washes were performed with chilled standard binding buffer (500 μL) to decrease nonspecific binding. Filters were placed in 6 mL scintillation tubes and allowed to dry overnight. The next day, 4 ml of EcoScint scintillation cocktail (National Diagnostics) was added to each tube. The tubes were capped, labeled, and counted by liquid scintillation counting. The filter mats were dried, and the scintillant was melted onto the filters, then the radioactivity retained on the filters was counted in a Microbeta scintillation counter. The IC50 values were obtained by using the Prism 4.0 program (GraphPad Software, San Diego, CA) and converted into Ki values. Each compound was tested in triplicate at least.
# (§3) 3. Radioligands and reference compounds for binding assay
# (§4) Table S1. A list of 5-HT receptor radioligands and reference compounds for binding assay.
# (§5) Receptor subtype Radioligand Reference compound
# (§6) 1A [3H]8-OH-DPAT Methysergide
# (§7) 2A [3H]Ketanserin Chlorpromazine
# (§8) 2C [3H]Mesulergine Chlorpromazine
# 5-HT1B receptor = target: T2, 5-HT1B receptor (Homo sapiens, UniProt P28222); test: 5-HT receptor radioligand binding affinity assay, 1B; conditions: 10 μM
# T2 construct: expressed in transfected cells; host or cells: HEK293 or CHO
# T2 sequence (P28222 whole entry): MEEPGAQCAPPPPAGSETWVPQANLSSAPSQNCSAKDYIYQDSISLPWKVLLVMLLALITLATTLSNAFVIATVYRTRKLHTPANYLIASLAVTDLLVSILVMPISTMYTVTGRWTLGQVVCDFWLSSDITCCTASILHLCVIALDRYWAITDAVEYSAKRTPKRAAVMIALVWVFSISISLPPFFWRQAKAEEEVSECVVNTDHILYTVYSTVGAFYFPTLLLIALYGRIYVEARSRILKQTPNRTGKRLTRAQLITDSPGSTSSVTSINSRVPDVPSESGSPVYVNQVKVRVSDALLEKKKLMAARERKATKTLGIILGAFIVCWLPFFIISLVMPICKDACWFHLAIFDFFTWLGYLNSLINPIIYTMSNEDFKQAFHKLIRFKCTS
# 5-HT1D receptor = target: T3, 5-HT1D receptor (Homo sapiens, UniProt P28221); test: 5-HT receptor radioligand binding affinity assay, 1D
# T3 construct: expressed in transfected cells; host or cells: HEK293 or CHO
# T3 sequence (P28221 whole entry): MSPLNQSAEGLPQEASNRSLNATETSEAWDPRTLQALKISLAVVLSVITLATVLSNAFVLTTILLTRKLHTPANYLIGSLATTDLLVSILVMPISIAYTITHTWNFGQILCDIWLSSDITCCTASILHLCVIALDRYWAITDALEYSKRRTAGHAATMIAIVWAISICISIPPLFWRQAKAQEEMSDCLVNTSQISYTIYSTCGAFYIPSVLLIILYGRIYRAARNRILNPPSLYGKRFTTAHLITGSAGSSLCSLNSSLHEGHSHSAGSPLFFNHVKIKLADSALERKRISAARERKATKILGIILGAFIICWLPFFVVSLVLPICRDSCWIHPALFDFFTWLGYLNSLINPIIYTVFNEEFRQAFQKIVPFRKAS
# Experimental: as §1, §2, §3, §4, §5, §6, §7, §8
# 5-HT5A receptor = target: T4, 5-HT5A receptor (Homo sapiens, UniProt P47898); test: 5-HT receptor radioligand binding affinity assay, 5A
# T4 construct: expressed in transfected cells; host or cells: HEK293 or CHO
# T4 sequence (P47898 whole entry): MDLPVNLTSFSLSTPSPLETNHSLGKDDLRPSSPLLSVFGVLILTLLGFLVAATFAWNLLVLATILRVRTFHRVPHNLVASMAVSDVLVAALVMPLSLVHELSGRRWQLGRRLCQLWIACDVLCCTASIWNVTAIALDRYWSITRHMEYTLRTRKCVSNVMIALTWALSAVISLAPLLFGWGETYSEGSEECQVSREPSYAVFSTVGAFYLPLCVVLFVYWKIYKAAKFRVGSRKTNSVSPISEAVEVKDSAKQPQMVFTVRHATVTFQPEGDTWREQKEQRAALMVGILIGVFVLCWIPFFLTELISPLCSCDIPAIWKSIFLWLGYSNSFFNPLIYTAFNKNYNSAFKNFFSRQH
# Experimental: as §1, §2, §3
# (§9) Table S1. A list of 5-HT receptor radioligands and reference compounds for binding assay. […]
# 5-HT2A receptor = target: T5, 5-HT2A receptor (Homo sapiens, UniProt P28223); test: 5-HT receptor radioligand binding affinity assay, 2A
# T5 construct: expressed in transfected cells; host or cells: HEK293 or CHO
# T5 sequence (P28223 whole entry): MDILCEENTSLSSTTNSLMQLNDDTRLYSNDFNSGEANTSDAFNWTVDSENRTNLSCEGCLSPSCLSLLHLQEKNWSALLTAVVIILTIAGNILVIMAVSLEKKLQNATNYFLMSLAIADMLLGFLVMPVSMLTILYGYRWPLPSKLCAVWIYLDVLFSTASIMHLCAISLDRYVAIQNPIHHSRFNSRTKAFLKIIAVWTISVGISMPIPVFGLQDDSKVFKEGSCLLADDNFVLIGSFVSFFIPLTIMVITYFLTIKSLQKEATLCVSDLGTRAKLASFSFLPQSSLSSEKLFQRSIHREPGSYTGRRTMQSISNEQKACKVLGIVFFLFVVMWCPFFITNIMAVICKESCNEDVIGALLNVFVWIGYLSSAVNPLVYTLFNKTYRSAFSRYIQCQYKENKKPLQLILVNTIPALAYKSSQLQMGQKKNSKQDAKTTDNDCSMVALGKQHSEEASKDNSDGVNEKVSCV
# Experimental: as §1, §2, §3, §4, §5, §6, §7, §8
# 5-HT6 receptor = target: T6, 5-HT6 receptor (Homo sapiens, UniProt P50406); test: 5-HT receptor radioligand binding affinity assay, 6
# T6 construct: expressed in transfected cells; host or cells: HEK293 or CHO
# T6 sequence (P50406 whole entry): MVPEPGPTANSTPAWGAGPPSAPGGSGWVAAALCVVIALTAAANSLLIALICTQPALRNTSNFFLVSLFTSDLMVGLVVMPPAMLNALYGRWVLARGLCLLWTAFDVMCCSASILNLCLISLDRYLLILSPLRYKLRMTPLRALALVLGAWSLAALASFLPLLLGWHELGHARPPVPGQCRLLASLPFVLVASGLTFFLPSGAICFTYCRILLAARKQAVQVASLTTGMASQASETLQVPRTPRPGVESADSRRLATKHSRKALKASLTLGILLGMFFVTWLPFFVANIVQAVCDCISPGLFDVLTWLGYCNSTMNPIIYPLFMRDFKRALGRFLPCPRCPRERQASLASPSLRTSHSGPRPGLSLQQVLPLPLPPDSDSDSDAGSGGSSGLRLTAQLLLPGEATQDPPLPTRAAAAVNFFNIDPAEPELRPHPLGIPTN
# Experimental: as §1, §2, §3, §4, §5, §6, §7, §8
# 5-HT1A receptor = target: T7, 5-HT1A receptor (Homo sapiens, UniProt P08908); test: 5-HT receptor radioligand binding affinity assay, 1A
# T7 construct: expressed in transfected cells; host or cells: HEK293 or CHO
# T7 sequence (P08908 1-422): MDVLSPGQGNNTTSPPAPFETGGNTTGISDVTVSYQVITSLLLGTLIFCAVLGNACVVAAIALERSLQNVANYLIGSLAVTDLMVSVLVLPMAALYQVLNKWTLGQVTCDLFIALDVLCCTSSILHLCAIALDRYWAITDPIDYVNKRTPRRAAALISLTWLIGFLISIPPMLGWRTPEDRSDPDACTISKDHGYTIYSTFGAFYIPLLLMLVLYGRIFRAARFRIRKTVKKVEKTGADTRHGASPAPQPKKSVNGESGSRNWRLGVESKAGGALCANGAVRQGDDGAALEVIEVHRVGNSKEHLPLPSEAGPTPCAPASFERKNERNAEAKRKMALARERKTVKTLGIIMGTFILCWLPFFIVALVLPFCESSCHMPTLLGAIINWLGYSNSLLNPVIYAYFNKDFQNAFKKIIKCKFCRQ
# Experimental: as §1, §2, §3, §4, §5, §6, §7, §8
# 5-HT7 receptor = target: T8, 5-HT7 receptor (Homo sapiens, UniProt P34969); test: 5-HT receptor radioligand binding affinity assay, 7
# T8 construct: expressed in transfected cells; host or cells: HEK293 or CHO
# T8 sequence (P34969 whole entry): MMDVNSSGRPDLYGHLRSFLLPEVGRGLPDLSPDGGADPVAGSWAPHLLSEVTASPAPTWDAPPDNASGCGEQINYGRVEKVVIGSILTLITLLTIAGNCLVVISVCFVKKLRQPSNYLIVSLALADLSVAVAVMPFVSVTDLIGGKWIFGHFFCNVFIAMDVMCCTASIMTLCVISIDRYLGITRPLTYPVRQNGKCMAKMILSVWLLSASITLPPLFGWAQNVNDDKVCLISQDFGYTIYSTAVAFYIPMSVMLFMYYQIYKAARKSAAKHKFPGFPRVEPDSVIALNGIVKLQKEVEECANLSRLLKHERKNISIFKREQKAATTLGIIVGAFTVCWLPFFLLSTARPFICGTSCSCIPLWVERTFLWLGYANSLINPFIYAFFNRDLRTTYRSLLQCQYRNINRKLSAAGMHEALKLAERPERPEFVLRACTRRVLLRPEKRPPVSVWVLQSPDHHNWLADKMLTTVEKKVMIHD
# Experimental: as §1, §2, §3, §4, §5, §6, §7, §8
# 5-HT2B receptor = target: T9, 5-HT2B receptor (Homo sapiens, UniProt P41595); test: 5-HT receptor radioligand binding affinity assay, 2B
# T9 construct: expressed in transfected cells; host or cells: HEK293 or CHO
# T9 sequence (P41595 whole entry): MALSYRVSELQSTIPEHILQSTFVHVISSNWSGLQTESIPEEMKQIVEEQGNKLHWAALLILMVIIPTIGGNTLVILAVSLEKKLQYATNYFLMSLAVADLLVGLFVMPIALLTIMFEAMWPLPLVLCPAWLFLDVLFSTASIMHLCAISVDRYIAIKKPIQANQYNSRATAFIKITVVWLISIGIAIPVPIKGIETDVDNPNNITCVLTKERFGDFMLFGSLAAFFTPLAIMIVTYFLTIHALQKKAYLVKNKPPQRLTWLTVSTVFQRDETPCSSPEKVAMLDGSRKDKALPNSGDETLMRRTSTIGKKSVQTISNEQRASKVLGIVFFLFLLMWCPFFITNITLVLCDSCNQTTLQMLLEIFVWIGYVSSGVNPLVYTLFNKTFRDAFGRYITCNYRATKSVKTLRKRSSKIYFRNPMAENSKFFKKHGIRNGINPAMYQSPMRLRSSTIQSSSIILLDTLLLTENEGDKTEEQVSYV
# Experimental: as §1, §2, §3, §4, §5, §6, §7, §8
# 5-HT3 receptor = target: T10, 5-HT3 receptor (Homo sapiens, UniProt P46098); test: 5-HT receptor radioligand binding affinity assay, 3
# T10 construct: expressed in transfected cells; host or cells: HEK293 or CHO
# T10 sequence (P46098 24-478): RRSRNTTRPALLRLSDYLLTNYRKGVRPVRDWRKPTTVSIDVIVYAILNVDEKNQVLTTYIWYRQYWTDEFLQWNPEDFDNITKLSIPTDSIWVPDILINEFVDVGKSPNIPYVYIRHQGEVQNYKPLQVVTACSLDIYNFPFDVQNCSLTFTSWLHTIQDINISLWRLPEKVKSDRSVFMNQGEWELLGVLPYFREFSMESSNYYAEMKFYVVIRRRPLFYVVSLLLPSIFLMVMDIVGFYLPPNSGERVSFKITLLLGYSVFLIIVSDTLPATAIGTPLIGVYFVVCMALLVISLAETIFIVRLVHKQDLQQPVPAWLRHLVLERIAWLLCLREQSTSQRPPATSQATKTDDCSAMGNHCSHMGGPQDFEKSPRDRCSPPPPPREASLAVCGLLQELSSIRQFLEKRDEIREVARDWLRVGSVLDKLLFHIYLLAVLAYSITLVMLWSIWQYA
# Experimental: as §1, §2, §3, §4, §5, §6, §7, §8
# 5-HT1E receptor = target: T11, 5-HT1E receptor (Homo sapiens, UniProt P28566); test: 5-HT receptor radioligand binding affinity assay, 1E
# T11 construct: expressed in transfected cells; host or cells: HEK293 or CHO
# T11 sequence (P28566 whole entry): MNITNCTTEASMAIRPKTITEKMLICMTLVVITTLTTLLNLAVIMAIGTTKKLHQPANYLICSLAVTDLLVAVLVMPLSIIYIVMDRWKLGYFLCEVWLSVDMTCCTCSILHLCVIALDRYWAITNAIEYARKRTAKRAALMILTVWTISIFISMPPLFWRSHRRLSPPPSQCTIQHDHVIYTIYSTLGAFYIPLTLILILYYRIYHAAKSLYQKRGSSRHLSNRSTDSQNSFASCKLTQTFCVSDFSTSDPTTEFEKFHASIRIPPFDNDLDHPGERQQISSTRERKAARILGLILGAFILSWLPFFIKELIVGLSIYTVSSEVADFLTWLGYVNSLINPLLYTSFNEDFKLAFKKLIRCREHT
# Experimental: as §1, §2, §3, §9
# [3] = HEK293, read-out: %activation (10 μM)
# [4] = HEK293, read-out: %activation (10 μM), 10 μM, recombinant human HEK-293 cells, Table 1
# [5] = subtype Ki divided by 5-HT2C Ki
compound,measurement,setting,value
Fc1cccc(CCOc2cnc(N3CCCNCC3)nc2)c1 [9o],activation at 10 µM,5-HT2C receptor [1]; [3],3%
"C[C@@H]1CNCCN1c1ncc(OCc2ccc(F)cc2)cn1 [9k, (R)-4-(5-((4-fluorobenzyl)oxy)pyrimidin-2-yl)-3-methylpiperazin-1-ium∙hydrochloride]",activation at 10 µM,5-HT2C receptor [1]; [3],48%
C[C@@H]1CNCCN1c1ncc(Oc2cccc(F)c2)cn1 [9g],activation at 10 µM,5-HT2C receptor [1]; [3],35%
Fc1cccc(Oc2cnc(N3CCCNCC3)nc2)c1 [9m],activation at 10 µM,5-HT2C receptor [1]; [3],16%
"C[C@@H](Oc1nc(N2CCC3(CCNC3)C2)ncc1F)c1cccc(F)c1 (stereo partly drawn) [10b, 2-(5-fluoro-4-((R)-1-(3-fluorophenyl)ethoxy)pyrimidin-2-yl)-2,7-diazaspiro[4.4]nonane]",%activation,5-HT2C receptor [1],78.2%
"C[C@@H](Oc1nc(N2C[C@H]3CNC[C@H]3C2)ncc1F)c1cccc(F)c1 [10c, (3aR,6aS)-2-(5-fluoro-4-((R)-1-(3-fluorophenyl)ethoxy)pyrimidin-2-yl)octahydropyrrolo[3,4-c]pyrrole]",Ki,5-HT2C receptor [2]; Table 2,295 nM
same,%activation,5-HT2C receptor [1],29.5%
Fc1ccc(CCOc2cnc(N3CCNCC3)nc2)cc1 [9f],activation at 10 µM,5-HT2C receptor [1]; [4],4%
Fc1ccc(Oc2cnc(N3CCCNCC3)nc2)cc1 [9p],activation at 10 µM,5-HT2C receptor [1]; [3],14%
Fc1cccc(CCOc2cnc(N3CCNCC3)nc2)c1 [9c],activation at 10 µM,5-HT2C receptor [1]; [4],15%
"C[C@@H](Oc1nc(N2C[C@H]3CNC[C@H]3C2)ncc1F)c1ccc(F)cc1 [10h, (3aR,6aS)-2-(5-fluoro-4-((R)-1-(4-fluorophenyl)ethoxy)pyrimidin-2-yl)octahydropyrrolo[3,4-c]pyrrole]",Ki,5-HT2C receptor [2]; Table 2,466 nM
same,%activation,5-HT2C receptor [1],10.1%
"Fc1ccc(COc2cnc(N3CCCNCC3)nc2)cc1 [9q, 4-(5-((4-fluorobenzyl)oxy)pyrimidin-2-yl)-1,4-diazepan-1-ium∙hydrochloride]",activation at 10 µM,5-HT2C receptor [1]; [3],16%
"C[C@@H](Oc1nc(N2CCCNCC2)ncc1F)c1ccc(F)cc1 [10f, (R)-1-(5-fluoro-4-(1-(4-fluorophenyl)ethoxy)pyrimidin-2-yl)-1,4-diazepane]","%Binding at 10 μM, 1B",5-HT1B receptor,19.2 /ND^b %
same,%binding,5-HT2C receptor [2]; Table 2,93.9%
same,Ki,5-HT2C receptor [2]; Table 2,19 nM
same,"SI, selectivity index, 2C",5-HT2C receptor [2]; [5],1.0
same,Ki,5-HT1D receptor,937 nM
same,"%Binding at 10 μM, 1D",5-HT1D receptor; 10 μM,81.3%
same,"SI, selectivity index, 1D",5-HT1D receptor; [5],49.3
same,%activation,5-HT2C receptor [1],52.4%
same,"%Binding at 10 μM, 5A",5-HT5A receptor,15.2 /ND %
same,Ki,5-HT2A receptor,2860 nM
same,"%Binding at 10 μM, 2A",5-HT2A receptor; 10 μM,52.9%
same,"SI, selectivity index, 2A",5-HT2A receptor; [5],150.7
same,Ki,5-HT6 receptor,467 nM
same,"%Binding at 10 μM, 6",5-HT6 receptor; 10 μM,56.5%
same,"SI, selectivity index, 6",5-HT6 receptor; [5],24.6
same,Ki,5-HT1A receptor,1070 nM
same,"%Binding at 10 μM, 1A",5-HT1A receptor; 10 μM,67.6%
same,"SI, selectivity index, 1A",5-HT1A receptor; [5],56.1
same,Ki,5-HT7 receptor,616 nM
same,"%Binding at 10 μM, 7",5-HT7 receptor; 10 μM,55.4%
same,"SI, selectivity index, 7",5-HT7 receptor; [5],32.4
same,Ki,5-HT2B receptor,118 nM
same,"%Binding at 10 μM, 2B",5-HT2B receptor; 10 μM,95.0%
same,"SI, selectivity index, 2B",5-HT2B receptor; [5],6.2
same,Ki,5-HT3 receptor,415 nM
same,"%Binding at 10 μM, 3",5-HT3 receptor; 10 μM,88.0%
same,"SI, selectivity index, 3",5-HT3 receptor; [5],21.8
same,"%Binding at 10 μM, 1E",5-HT1E receptor,31.3 /ND^b %
C[C@@H]1CNCCN1c1ncc(OCCc2ccc(F)cc2)cn1 [9l],activation at 10 µM,5-HT2C receptor [1]; [3],32%
"Fc1ccc(COc2cnc(N3CCNCC3)nc2)cc1 [9e, 4-(5-((4-fluorobenzyl)oxy)pyrimidin-2-yl)piperazin-1-ium∙hydrochloride]",activation at 10 µM,5-HT2C receptor [1]; [4],18%
